From the supplement of paper PMC10307832

Tests used:
Assay in all cases: relative viability (nuclei count vs DMSO), 5 days (fraction); higher = more cells survive
Vemurafenib + Alpelisib = compound: CCCS(=O)(=O)Nc1ccc(F)c(C(=O)c2c[nH]c3ncc(-c4ccc(Cl)cc4)cc23)c1F [Vemurafenib] + Cc1nc(NC(=O)N2CCC[C@H]2C(N)=O)sc1-c1ccnc(C(C)(C)C(F)(F)F)c1 [Alpelisib] (partner 2 µM)
Summary of the method: (§1)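 One day after seeding in 1536-well plates, lung cancer cell lines were dosed by pin tool. Dosing was either single-drug or a fixed anchor-drug dose plus five library-drug doses (not always all listed) in √10 steps. After 5 days, nuclei were stained in one fix-and-stain step and counted on 4× images, and relative viability is the nuclei count of treated wells over that of vehicle wells, given as the median of duplicate plates.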

Alpelisib + Crizotinib = compound: Cc1nc(NC(=O)N2CCC[C@H]2C(N)=O)sc1-c1ccnc(C(C)(C)C(F)(F)F)c1 [Alpelisib] + C[C@@H](Oc1cc(-c2cnn(C3CCNCC3)c2)cnc1N)c1c(Cl)ccc(F)c1Cl [Crizotinib] (partner 1 µM)
Summary of the method: as §1

OSI-027 + Tozasertib = compound: COc1cccc2cc(-c3nc([C@H]4CC[C@H](C(=O)O)CC4)n4ncnc(N)c34)[nH]c12 [OSI-027] + Cc1cc(Nc2cc(N3CCN(C)CC3)nc(Sc3ccc(NC(=O)C4CC4)cc3)n2)n[nH]1 [Tozasertib] (partner 0.1 µM)
Summary of the method: as §1

OSI-027 + Olaparib = compound: COc1cccc2cc(-c3nc([C@H]4CC[C@H](C(=O)O)CC4)n4ncnc(N)c34)[nH]c12 [OSI-027] + O=C(c1cc(Cc2n[nH]c(=O)c3ccccc23)ccc1F)N1CCN(C(=O)C2CC2)CC1 [Olaparib] (partner 8 µM)
Summary of the method: as §1

Cell Line	relative viability (Vemurafenib + Alpelisib; first compound 0.03162 µM)	relative viability (Vemurafenib + Alpelisib; first compound 0.1 µM)	relative viability (Vemurafenib + Alpelisib; first compound 0.3162 µM)	relative viability (Vemurafenib + Alpelisib; first compound 1 µM)	relative viability (Alpelisib + Crizotinib; first compound 0.04 µM)	relative viability (Alpelisib + Crizotinib; first compound 0.1265 µM)	relative viability (Alpelisib + Crizotinib; first compound 0.4 µM)	relative viability (Alpelisib + Crizotinib; first compound 1.265 µM)	relative viability (Alpelisib + Crizotinib; first compound 4 µM)	relative viability (OSI-027 + Tozasertib; first compound 0.01 µM)	relative viability (OSI-027 + Tozasertib; first compound 0.03162 µM)	relative viability (OSI-027 + Tozasertib; first compound 0.1 µM)	relative viability (OSI-027 + Tozasertib; first compound 0.3162 µM)	relative viability (OSI-027 + Tozasertib; first compound 1 µM)	relative viability (OSI-027 + Olaparib; first compound 0.01 µM)	relative viability (OSI-027 + Olaparib; first compound 0.03162 µM)	relative viability (OSI-027 + Olaparib; first compound 0.1 µM)	relative viability (OSI-027 + Olaparib; first compound 0.3162 µM)	relative viability (OSI-027 + Olaparib; first compound 1 µM)
NCI-H1975	0.582	0.608	0.526	0.629	0.877	1.01	0.968	0.753	0.68	1	0.778	0.746	0.66	0.478	0.803	0.609	0.755	0.76	0.478
A-427	1.02	1.09	1.11	1.14	0.775	0.835	1.11	0.773	0.653	0.231	0.201	0.159	0.219	0.192	0.817	0.835	0.643	0.593	0.506
SK-LU-1	0.996	0.96	0.682	0.758	0.987	0.792	1.01	0.773	0.763	0.295	0.331	0.303	0.248	0.241	0.399	0.43	0.396	0.359	0.265
PC-3 [JPC-3]	0.985		1.11	1.07	1.03	1.05	1.07	0.901	0.969	1.03	0.808	0.844	0.841	0.351	1.13	1.14	1.23	1.08	0.628
ChaGo-K-1					1.13		1.15	0.988	0.841	0.208	0.222	0.203	0.382	0.172	0.429	0.423	0.451	0.415	0.317
NCI-H2023	0.614	0.524	0.749	0.538	0.53	0.565	0.476	0.389	0.257	0.424	0.319	0.352	0.348	0.244	0.455	0.446	0.455	0.303	0.253
LXF-289	1.02	1.02	1.05	1.03	0.798	0.792	0.875	0.84	0.778	0.17	0.209	0.201	0.195	0.133	1.07	1.05	1.13	0.971	0.625
EBC-1	0.835	0.833	0.805	0.834	0.229	0.177	0.204	0.199	0.177						0.662	0.736	0.67	0.579	0.331
LOU-NH91	0.713	0.487		0.734	0.743	0.702	0.758	0.627	0.59	0.656	0.617	0.571	0.658	0.484	0.91	0.907	0.844	0.843	0.638
PC-14	0.881		0.907	0.903	0.817	0.893	1.04	0.842	0.766	0.564	0.577	0.598	0.636	0.505	0.228	0.267	0.292	0.306	0.23
Calu-6	0.975	0.891	0.817	0.904	0.772	0.691	0.911	0.753	0.559						0.568	0.621	0.637	0.64	0.577
H3255	0.688		0.643	0.663	0.85	1.05	1.16	0.631	0.675	0.749	0.62	0.604	0.555	0.436	0.595	0.555	0.588	0.569	0.409
SW 900											0.548	0.493	0.589	0.483	0.953	0.819	0.931	0.823	0.519
NCI-H1563	0.874	0.935	0.904	0.949	0.877	0.89	0.753	0.775	0.707										
NCI-H1792	0.624	0.673	0.61	0.693	1.01	0.884	0.983	0.886	0.72						0.33	0.296	0.247	0.354	0.142
NCI-H522										0.536	0.625	0.524	0.522	0.431	0.544	0.668	0.524	0.679	0.449
NCI-H1623										0.391	0.414	0.417	0.414	0.233					
NCI-H1648										0.412		0.419	0.366	0.305	1.06	0.725		0.639	0.397
NCI-H1299	1.05	1.05	0.928	0.985	0.935	0.943	1	0.996	0.936						1.02	0.998	0.956	1.04	0.796
NCI-H1703	0.353	0.318	0.292	0.301	0.465	0.576	0.539	0.277	0.35						0.424	0.552	0.316	0.304	0.19
NCI-H1395	1.01	1.01		1.09						0.675	0.718	0.683	0.67	0.611	0.525	0.412	0.48	0.376	0.362
A549	0.568	0.713	0.772	0.867	0.698	0.707	0.625	0.389	0.405						0.465	0.258	0.305	0.282	0.0927
